From the NIST ThermoML archive (doi:10.1021/je050389b)
Numbers after ± are expanded uncertainties.

Key:
[1] = Liquid
[2] = xn = mol fraction of the nth substance listed; conditions: Liquid, x2 = 0

| SMILES | viscosity ([1]; 288.15 K, 100.5 kPa) [mPa·s] | mass density ([1]; 288.15 K, 101 kPa) [kg/m3] | viscosity ([1]; 298.15 K, 100.5 kPa) [mPa·s] | mass density ([1]; 298.15 K, 101 kPa) [kg/m3] | viscosity ([1]; 308.15 K, 100.5 kPa) [mPa·s] | mass density ([1]; 308.15 K, 101 kPa) [kg/m3] | viscosity ([1]; 318.15 K, 100.5 kPa) [mPa·s] | mass density ([1]; 318.15 K, 101 kPa) [kg/m3] | viscosity ([2]; 288.15 K, 100.5 kPa) [mPa·s] | viscosity ([2]; 298.15 K, 100.5 kPa) [mPa·s] | viscosity ([2]; 308.15 K, 100.5 kPa) [mPa·s] | viscosity ([2]; 318.15 K, 100.5 kPa) [mPa·s] | mass density ([2]; 288.15 K, 101 kPa) [kg/m3] | mass density ([2]; 298.15 K, 101 kPa) [kg/m3] | mass density ([2]; 308.15 K, 101 kPa) [kg/m3] | mass density ([2]; 318.15 K, 101 kPa) [kg/m3] | further results |
| --- | --- | --- | --- | --- | --- | --- | --- | --- | --- | --- | --- | --- | --- | --- | --- | --- | --- |
| CCCC(=O)OCCC(C)C [3-methylbutyl butanoate] | 1.317 ± 0.019 | 867.72 ± 0.32 | 1.111 ± 0.018 | 858.69 ± 0.32 | 0.952 ± 0.016 | 849.62 ± 0.32 | 0.827 ± 0.016 | 840.55 ± 0.32 | – | – | – | – | – | – | – | – | – |
| CC(=O)OCCC(C)C [3-methylbutyl ethanoate] | 0.94 ± 0.016 | – | 0.804 ± 0.015 | – | 0.704 ± 0.015 | – | 0.627 ± 0.014 | – | – | – | – | – | – | – | – | – | mass density ([1]; 288.15 K, 100.5 kPa): 877.72 ± 0.36 kg/m3; mass density ([1]; 298.15 K, 100.5 kPa): 867.91 ± 0.36 kg/m3; mass density ([1]; 308.15 K, 100.5 kPa): 858.07 ± 0.36 kg/m3; mass density ([1]; 318.15 K, 100.5 kPa): 848.17 ± 0.36 kg/m3 |
| CCO [ethanol] | 1.337 ± 0.019 | 793.6 ± 0.23 | 1.105 ± 0.017 | 785 ± 0.24 | 0.921 ± 0.016 | 776.31 ± 0.24 | 0.771 ± 0.015 | 767.44 ± 0.25 | – | – | – | – | – | – | – | – | mass density ([1]; 288.15 K, 100.5 kPa): 793.6 ± 0.23 kg/m3; mass density ([1]; 298.15 K, 100.5 kPa): 785 ± 0.24 kg/m3; mass density ([1]; 308.15 K, 100.5 kPa): 776.31 ± 0.24 kg/m3; mass density ([1]; 318.15 K, 100.5 kPa): 767.44 ± 0.25 kg/m3 |
| CCO [ethanol] + CC(=O)OCCC(C)C | – | – | – | – | – | – | – | – | 1.337 ± 0.019 | 1.105 ± 0.017 | 0.921 ± 0.016 | 0.771 ± 0.015 | – | – | – | – | mass density ([2]; 288.15 K, 100.5 kPa): 793.6 ± 0.23 kg/m3; mass density ([2]; 298.15 K, 100.5 kPa): 785 ± 0.24 kg/m3; mass density ([2]; 308.15 K, 100.5 kPa): 776.31 ± 0.24 kg/m3; mass density ([2]; 318.15 K, 100.5 kPa): 767.44 ± 0.25 kg/m3 |
| CCO [ethanol] + CCCC(=O)OCCC(C)C | – | – | – | – | – | – | – | – | 1.337 ± 0.019 | 1.105 ± 0.017 | 0.921 ± 0.016 | 0.771 ± 0.015 | 793.6 ± 0.23 | 785 ± 0.24 | 776.31 ± 0.24 | 767.44 ± 0.25 | – |
| CCO [ethanol] + CCCCCC(=O)OCC | – | – | – | – | – | – | – | – | 1.337 ± 0.019 | 1.105 ± 0.017 | 0.921 ± 0.016 | 0.771 ± 0.015 | 793.6 ± 0.23 | 785 ± 0.24 | 776.31 ± 0.24 | 767.44 ± 0.25 | – |
| CCO [ethanol] + CCCCCCCC(=O)OCC | – | – | – | – | – | – | – | – | 1.337 ± 0.019 | 1.105 ± 0.017 | 0.921 ± 0.016 | 0.771 ± 0.015 | 793.6 ± 0.23 | 785 ± 0.24 | 776.31 ± 0.24 | 767.44 ± 0.25 | – |
| CCO [ethanol] + CCOC(=O)Cc1ccccc1 | – | – | – | – | – | – | – | – | 1.337 ± 0.019 | 1.105 ± 0.017 | 0.921 ± 0.016 | 0.771 ± 0.015 | 793.6 ± 0.23 | 785 ± 0.24 | 776.31 ± 0.24 | 767.44 ± 0.25 | – |
| CCO [ethanol] + CCOC(=O)c1ccccc1 | – | – | – | – | – | – | – | – | 1.337 ± 0.019 | 1.105 ± 0.017 | 0.921 ± 0.016 | 0.771 ± 0.015 | 793.6 ± 0.23 | 785 ± 0.24 | 776.31 ± 0.24 | 767.44 ± 0.25 | – |
| CCOC(=O)c1ccccc1 [ethyl benzoate] | 2.444 ± 0.028 | 1050.78 ± 0.17 | 1.971 ± 0.024 | 1041.42 ± 0.17 | 1.624 ± 0.021 | 1032.07 ± 0.17 | 1.368 ± 0.019 | 1022.73 ± 0.16 | – | – | – | – | – | – | – | – | – |
| CCCCCC(=O)OCC [ethyl hexanoate] | 1.102 ± 0.017 | 875.64 ± 0.22 | 0.94 ± 0.016 | 866.29 ± 0.22 | 0.814 ± 0.015 | 856.91 ± 0.23 | 0.711 ± 0.015 | 847.5 ± 0.23 | – | – | – | – | – | – | – | – | – |
| CCCCCCCC(=O)OCC [ethyl octanoate] | 1.697 ± 0.022 | 870.79 ± 0.28 | 1.411 ± 0.02 | 862.15 ± 0.29 | 1.193 ± 0.018 | 853.52 ± 0.29 | 1.027 ± 0.017 | 844.87 ± 0.29 | – | – | – | – | – | – | – | – | – |
| CCOC(=O)Cc1ccccc1 [ethyl phenylacetate] | 3.002 ± 0.035 | 1036.35 ± 0.34 | 2.384 ± 0.028 | 1026.96 ± 0.33 | 1.948 ± 0.024 | 1017.6 ± 0.33 | 1.624 ± 0.022 | 1008.26 ± 0.33 | – | – | – | – | – | – | – | – | – |
